Measurements taken from ChEMBL document CHEMBL1123144, “Studies on 4(1H)-quinazolinones. 5. Synthesis and antiinflammatory activity of 4(1H)-quinazolinone derivatives” (J Med Chem, 1985).

What was measured:
Rattus norvegicus [1] = assay: Percent inhibition against carrageenan-induced rat paw edema at 50 mg/kg dose administered perorally; 41-50%; type: functional; conditions: route oral
Rattus norvegicus [2] = assay: Anti-inflammatory activity following oral administration; type: functional
Rattus norvegicus [3] = assay: Analgesic activity by oral administration route; type: functional
Rattus norvegicus [4] = assay: Percent inhibition against carrageenan-induced rat paw edema at 50 mg/kg dose administered perorally; 0-10%; type: functional; conditions: route oral
Rattus norvegicus [5] = assay: Analgesic activity following oral administration at a dose 30 mg/kg; type: functional
Rattus norvegicus [6] = assay: Percent inhibition against carrageenan-induced rat paw edema at 50 mg/kg dose administered perorally; 31-40%; type: functional; conditions: route oral
Rattus norvegicus [7] = assay: Percent inhibition against carrageenan-induced rat paw edema at 50 mg/kg dose administered perorally; type: functional; conditions: route oral
Rattus norvegicus [8] = assay: Percent inhibition against carrageenan-induced rat paw edema at 50 mg/kg dose administered perorally; 11-20%; type: functional; conditions: route oral
Rattus norvegicus [9] = assay: Percent inhibition against carrageenan-induced rat paw edema at 50 mg/kg dose administered perorally; 21-30%; type: functional; conditions: route oral
Mus musculus [10] = assay: Number of mice bearing ulcer at dose 30 mg/kg out of 5 mices tested; type: functional
Mus musculus [11] = assay: Toxicity by number of mice dead at dose 500 mg/kg out of 5 mice tested by oral administration route; Value represented as 0/5; type: organism-based; design: dose 500 mg/kg, route oral; conditions: in vivo
Mus musculus [12] = assay: Ulcer index by number of mice bearing ulcer at dose 30 mg/kg out of 5 mice tested; type: functional
Mus musculus [13] = assay: Number of mice bearing ulcer at dose 45 mg/kg out of 5 mices tested; type: functional
Mus musculus [14] = assay: Ulcer index by number of mice bearing ulcer at dose 45 mg/kg out of 5 mice tested; type: functional
Mus musculus [15] = assay: Toxicity by number of mice dead at dose 500 mg/kg out of 5 mice tested by oral administration route; Value represented as 5/5; type: organism-based; design: dose 500 mg/kg, route oral; conditions: in vivo

Structure (SMILES): CC(C)n1c(-c2ccc(F)cc2)nc(=O)c2cc(Cl)ccc21
- inhibition in vivo at 50 mg/kg (Rattus norvegicus [1]): 50%
- ED30 (Rattus norvegicus [2]): 18 mg/kg
- ED30 (Rattus norvegicus [3]): 100 mg/kg

Structure (SMILES): COc1ccccc1-c1nc(=O)c2ccccc2n1C(C)C
- inhibition in vivo at 50 mg/kg (Rattus norvegicus [4]): 10%

Structure (SMILES): CC(C)c1nc(=O)c2ccccc2n1-c1ccccc1
- ED30 (Rattus norvegicus [5]): 70 mg/kg
- ED30 (Rattus norvegicus [2]): 30 mg/kg
- inhibition in vivo at 50 mg/kg (Rattus norvegicus [6]): 40%

Structure (SMILES): CN(C)c1nc(=O)c2ccccc2n1-c1ccccc1
- inhibition in vivo at 50 mg/kg (Rattus norvegicus [4]): 10%

Structure (SMILES): COc1ccc2c(c1)c(=O)nc(C(C)C)n2-c1ccccc1
- inhibition in vivo at 50 mg/kg (Rattus norvegicus [7]): ≥ 51%

Structure (SMILES): CC(C)n1c(-c2ccccc2Cl)nc(=O)c2ccccc21
- inhibition in vivo at 50 mg/kg (Rattus norvegicus [1]): 50%

Structure (SMILES): O=c1nc(C2CCC2)n(-c2ccc([N+](=O)[O-])cc2)c2ccccc12
- inhibition in vivo at 50 mg/kg (Rattus norvegicus [4]): 10%

Structure (SMILES): CC(C)c1nc(=O)c2ccc(N)cc2n1-c1ccccc1
- inhibition in vivo at 50 mg/kg (Rattus norvegicus [8]): 20%

Structure (SMILES): CC(C)c1nc(=O)c2ccccc2n1-c1cccc(C(F)(F)F)c1
- inhibition in vivo at 50 mg/kg (Rattus norvegicus [9]): 30%

Structure (SMILES): CC(C)n1c(-c2ccccc2Cl)nc(=O)c2cc(Cl)ccc21
- inhibition in vivo at 50 mg/kg (Rattus norvegicus [1]): 50%

Structure (SMILES): CC(C)n1c(-c2ccc(N)cc2)nc(=O)c2ccccc21
- inhibition in vivo at 50 mg/kg (Rattus norvegicus [4]): 10%

Structure (SMILES): CC(C)c1nc(=O)c2ccccc2n1-c1ccccc1C(N)=O
- inhibition in vivo at 50 mg/kg (Rattus norvegicus [4]): 10%

Structure (SMILES): CC(C)n1c(-c2ccc(F)cc2)nc(=O)c2ccc(Cl)cc21
- inhibition in vivo at 50 mg/kg (Rattus norvegicus [9]): 30%

Structure (SMILES): O=c1nc(C2CCC2)n(-c2ccc(Cl)cc2)c2ccccc12
- inhibition in vivo at 50 mg/kg (Rattus norvegicus [9]): 30%

Structure (SMILES): CC(C)c1nc(=O)c2ccccc2n1-c1ccccc1Cl
- inhibition in vivo at 50 mg/kg (Rattus norvegicus [8]): 20%

Structure (SMILES): Cc1ccc2c(-c3ccccc3)nc(=O)n(C(C)C)c2c1 [PROQUAZONE]
- No. of mice (Mus musculus [10]): 4
- inhibition in vivo at 50 mg/kg (Rattus norvegicus [1]): 50%
- Toxicity (Mus musculus [11]): 0
- ED30 (Rattus norvegicus [2]): 10 mg/kg
- Ulcer Index (Mus musculus [12]): 0.12
- ED30 (Rattus norvegicus [3]): 20 mg/kg

Structure (SMILES): CCN(CC)Cc1nc(=O)c2ccccc2n1-c1ccccc1
- inhibition in vivo at 50 mg/kg (Rattus norvegicus [4]): 10%

Structure (SMILES): COc1ccc2c(c1)c(=O)nc(-c1ccccc1)n2C(C)C
- inhibition in vivo at 50 mg/kg (Rattus norvegicus [6]): 40%

Structure (SMILES): CC(C)C1NC(=O)c2ccccc2N1c1ccccc1 (stereo not drawn)
- inhibition in vivo at 50 mg/kg (Rattus norvegicus [4]): 10%

Structure (SMILES): CC(C)n1c(-c2ccccc2Cl)nc(=O)c2cc(F)ccc21
- inhibition in vivo at 50 mg/kg (Rattus norvegicus [9]): 30%

Structure (SMILES): O=c1nc(CCl)n(-c2cccc(C(F)(F)F)c2)c2ccccc12
- inhibition in vivo at 50 mg/kg (Rattus norvegicus [4]): 10%

Structure (SMILES): O=c1nc(C2CC2)n(-c2ccccc2)c2ccccc12
- inhibition in vivo at 50 mg/kg (Rattus norvegicus [7]): ≥ 51%

Structure (SMILES): CC(C)n1c(-c2ccc(Cl)cc2)nc(=O)c2ccc(Cl)cc21
- inhibition in vivo at 50 mg/kg (Rattus norvegicus [9]): 30%

Structure (SMILES): CC(C)n1c(-c2ccccc2)nc(=O)c2cc(Cl)ccc21
- inhibition in vivo at 50 mg/kg (Rattus norvegicus [1]): 50%

Structure (SMILES): CC(C)Cc1nc(=O)c2ccccc2n1-c1ccccc1
- inhibition in vivo at 50 mg/kg (Rattus norvegicus [9]): 30%

Structure (SMILES): CC(C)n1c(-c2ccc(Br)cc2)nc(=O)c2ccccc21
- inhibition in vivo at 50 mg/kg (Rattus norvegicus [1]): 50%

Structure (SMILES): CC(C)n1c(-c2ccccc2)nc(=O)c2cc(F)ccc21
- inhibition in vivo at 50 mg/kg (Rattus norvegicus [6]): 40%

Structure (SMILES): CC(C)(C)c1nc(=O)c2ccccc2n1-c1ccccc1
- inhibition in vivo at 50 mg/kg (Rattus norvegicus [4]): 10%

Structure (SMILES): Cc1ccc2c(=O)nc(-c3ccccc3)n(C(C)C)c2c1
- inhibition in vivo at 50 mg/kg (Rattus norvegicus [4]): 10%

Structure (SMILES): CC(C)n1c(-c2ccc(Cl)cc2)nc(=O)c2ccccc21
- No. of mice (Mus musculus [13]): 0
- Ulcer Index (Mus musculus [14]): 0
- inhibition in vivo at 50 mg/kg (Rattus norvegicus [1]): 50%
- Toxicity (Mus musculus [15]): 5
- ED30 (Rattus norvegicus [2]): 15 mg/kg
- ED30 (Rattus norvegicus [3]): 44 mg/kg

Structure (SMILES): CCCCc1nc(=O)c2ccccc2n1-c1ccccc1
- inhibition in vivo at 50 mg/kg (Rattus norvegicus [4]): 10%

Structure (SMILES): CC(C)N1c2ccccc2C(=O)NC1c1ccccc1Cl (stereo not drawn)
- inhibition in vivo at 50 mg/kg (Rattus norvegicus [4]): 10%

Structure (SMILES): O=c1nc(C2CC2)n(-c2cccc(C(F)(F)F)c2)c2ccccc12
- inhibition in vivo at 50 mg/kg (Rattus norvegicus [4]): 10%

Structure (SMILES): CC(C)c1nc(=O)c2ccccc2n1-c1ccccc1C(=O)O
- inhibition in vivo at 50 mg/kg (Rattus norvegicus [8]): 20%

Structure (SMILES): O=C(O)CCc1nc(=O)c2ccccc2n1-c1ccccc1
- inhibition in vivo at 50 mg/kg (Rattus norvegicus [4]): 10%

Structure (SMILES): O=c1nc(C2CC2)n(-c2ccc(Cl)cc2)c2ccccc12
- inhibition in vivo at 50 mg/kg (Rattus norvegicus [4]): 10%

Structure (SMILES): CC(C)n1c(-c2ccccc2)nc(=O)c2c(Cl)cccc21
- inhibition in vivo at 50 mg/kg (Rattus norvegicus [8]): 20%

Structure (SMILES): O=c1nc(C(F)(F)F)n(-c2ccccc2)c2ccccc12
- inhibition in vivo at 50 mg/kg (Rattus norvegicus [4]): 10%

Structure (SMILES): O=c1nc(C2CCC2)n(-c2ccccc2)c2ccccc12
- inhibition in vivo at 50 mg/kg (Rattus norvegicus [9]): 30%
